For 25 compounds, IC50 results are on record in patent publication US10550105B2 (Ribon Therapeutics Inc., priority 2018, dated 2020).

Structures are written as SMILES. pIC50: −log10 of the molar value. Some results are limits rather than exact numbers.

PARP7, sequence (Q7Z3E1 whole entry): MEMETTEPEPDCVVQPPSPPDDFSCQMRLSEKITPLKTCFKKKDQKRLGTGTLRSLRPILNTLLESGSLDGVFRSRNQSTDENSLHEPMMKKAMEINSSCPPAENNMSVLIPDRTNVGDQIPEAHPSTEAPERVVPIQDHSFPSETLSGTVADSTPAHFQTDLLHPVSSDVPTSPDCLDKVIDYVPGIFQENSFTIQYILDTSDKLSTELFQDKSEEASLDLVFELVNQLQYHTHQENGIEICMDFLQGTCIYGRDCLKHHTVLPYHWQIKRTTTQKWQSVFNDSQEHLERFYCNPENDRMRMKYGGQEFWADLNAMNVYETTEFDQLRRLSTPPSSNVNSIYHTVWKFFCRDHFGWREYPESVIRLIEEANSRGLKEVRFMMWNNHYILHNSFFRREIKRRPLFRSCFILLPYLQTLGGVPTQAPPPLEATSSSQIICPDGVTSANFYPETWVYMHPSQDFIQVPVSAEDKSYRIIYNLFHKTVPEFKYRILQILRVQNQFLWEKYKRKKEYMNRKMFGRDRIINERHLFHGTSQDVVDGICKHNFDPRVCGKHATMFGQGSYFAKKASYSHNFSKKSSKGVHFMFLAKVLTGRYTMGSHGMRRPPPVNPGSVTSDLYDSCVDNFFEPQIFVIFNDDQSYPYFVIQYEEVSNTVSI

The assay addresses PARP7 (Homo sapiens (Human), UniProt Q7Z3E1). Kind of assay: Enzymatic assay for inhibition of PARP7: TR-FRET displacement of biotinylated Probe A from the TIPARP active site. The class given is binding. The conditions noted are these: Table A-1. An outline of the steps:
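Compounds were tested as dose-response series, and reactions were incubated a further 30 min at 25° C. TR-FRET was read at 320 nm excitation with 615 and 665 nm emission after a 90 μs delay. The 665/615 ratio gave the TIPARP–Probe A complex, and % inhibition was fitted against concentration.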
(In TR-FRET formats the signal depends on donor and acceptor labels being close together.)
As usually defined, the pIC50 is −log10 of the IC50, conventionally taken in molar units. A higher pIC50 goes with a small IC50. As for `N#Cc1ccc(N2CCC3(CCN(C(=O)CCOC[C@@H]4CCCN4c4cn[nH]c(=O)c4C(F)(F)F)C3)CC2)nc1` [Example 103, 6-[2-(3-[[(2S)-1-[6-oxo-5-(trifluoromethyl)-1,6-dihydropyridazin-4-yl]pyrrolidin-2-yl]methoxy]propanoyl)-2,8-diazaspiro [4.5]decan-8-yl]pyridine-3-carbonitrile], the negative-log IC50 (pIC50) is 6.00 to 7.00.

In the case of `N#Cc1ccc(N2CCC3(CCN(C(=O)CCOC[C@@H]4CCCN4c4cn[nH]c(=O)c4C(F)(F)F)CC3)C2)nc1` [Example 104, 6-[8-(3-[[(2S)-1-[6-oxo-5-(trifluoromethyl)-1,6-dihydropyridazin-4-yl]pyrrolidin-2-yl]methoxy]propanoyl)-2,8-diazaspiro[4.5]decan-2-yl]pyridine-3-carbonitrile], the pIC50 was at most 6.00.

The compound `N#Cc1ccc(N2CCC3(CC2)CN(C(=O)CCOC[C@@H]2CCCN2c2cn[nH]c(=O)c2C(F)(F)F)C3)nc1` [Example 105, 6-[2-(3-[[(2S)-1-[6-oxo-5-(trifluoromethyl)-1,6-dihydropyridazin-4-yl]pyrrolidin-2-yl]methoxy]propanoyl)-2,7-diazaspiro[3.5]nonan-7-yl]pyridine-3-carbonitrile] gave a pIC50 of 6.00 to 7.00.

`N#Cc1ccc(N2CCCN(C(=O)CCOC[C@@H]3CCCN3c3cn[nH]c(=O)c3C(F)(F)F)CC2)nc1` [Example 106, (S)-6-(4-(3-((1-(6-oxo-5-(trifluoromethyl)-1,6-dihydropyridazin-4-yl)pyrrolidin-2-yl)methoxy)propanoyl)-1,4-diazepan-1-yl)nicotinonitrile] gave a pIC50 of over 7.00.

`N#Cc1ccc(NC2CN(C(=O)CCOC[C@@H]3CCCN3c3cn[nH]c(=O)c3C(F)(F)F)C2)nc1` [Example 107, 6-[[1-(3-[[(2S)-1-[6-oxo-5-(trifluoromethyl)-1,6-dihydropyridazin-4-yl]pyrrolidin-2-yl]methoxy]propanoyl)azetidin-3-yl]amino]pyridine-3-carbonitrile] showed a pIC50 of over 7.00.

Compound `N#Cc1ccc(N2CC3(CN(C(=O)CCOC[C@@H]4CCCN4c4cn[nH]c(=O)c4C(F)(F)F)C3)C2)nc1` [Example 108, 6-[6-(3-[[(2S)-1-[6-oxo-5-(trifluoromethyl)-1,6-dihydropyridazin-4-yl]pyrrolidin-2-yl]methoxy]propanoyl)-2,6-diazaspiro [3.3]heptan-2-yl]pyridine-3-carbonitrile] showed a negative logarithm of the IC50 (pIC50) of 6.00 to 7.00.

Turning to `N#Cc1ccc(N2CCC3(CN(C(=O)CCOC[C@@H]4CCCN4c4cn[nH]c(=O)c4C(F)(F)F)C3)C2)nc1` [Example 109, 6-[2-(3-[[(2S)-1-[6-oxo-5-(trifluoromethyl)-1,6-dihydropyridazin-4-yl]pyrrolidin-2-yl]methoxy]propanoyl)-2,6-diazaspiro[3.4]octan-6-yl]pyridine-3-carbonitrile], the pIC50 was 6.00 to 7.00.

The compound `N#Cc1ccc(N2CCC3(CCN(C(=O)CCOC[C@@H]4CCCN4c4cn[nH]c(=O)c4C(F)(F)F)C3)C2)nc1` (stereo partly drawn) [Example 111, 6-[7-(3-[[(2S)-1-[6-oxo-5-(trifluoromethyl)-1,6-dihydropyridazin-4-yl]pyrrolidin-2-yl]methoxy]propanoyl)-2,7-diazaspiro[4.4]nonan-2-yl]pyridine-3-carbonitrile] showed a pIC50 of 6.00 to 7.00.

As for `N#Cc1ccc(N2C[C@@H]3C[C@H]2CN3C(=O)CCOC[C@@H]2CCCN2c2cn[nH]c(=O)c2C(F)(F)F)nc1` [Example 112A, 6-[(1S,4S)-5-(3-(((S)-1-(6-oxo-5-(trifluoromethyl)-1,6-dihydropyridazin-4-yl)pyrrolidin-2-yl)methoxy)propanoyl)-2,5-diaza-bicyclo[2.2.1]heptan-2-yl)nicotinonitrile], the pIC50 was 6.00 to 7.00.

As to `N#Cc1ccc(N2C[C@H]3C[C@@H]2CN3C(=O)CCOC[C@@H]2CCCN2c2cn[nH]c(=O)c2C(F)(F)F)nc1` [Example 112B, 6-[(1R,4R)-5-(3-(((S)-1-(6-oxo-5-(trifluoromethyl)-1,6-dihydropyridazin-4-yl)pyrrolidin-2-yl)methoxy)propanoyl)-2,5-diaza-bicyclo[2.2.1]heptan-2-yl)nicotinonitrile], the pIC50 is at most 6.00.

As to `N#Cc1ccc(N2CCCC(NC(=O)CCOC[C@@H]3CCCN3c3cn[nH]c(=O)c3C(F)(F)F)C2)nc1` (stereo partly drawn) [Example 114, N-[1-(5-cyanopyridin-2-yl)piperidin-3-yl]-3-[[(2S)-1-[6-oxo-5-(trifluoromethyl)-1,6-dihydropyridazin-4-yl]pyrrolidin-2-yl]methoxy]propanamide], the negative-log IC50 (pIC50) is at most 6.00.

As for `N#Cc1ccc(N2CCC(NC(=O)CCOC[C@@H]3CCCN3c3cn[nH]c(=O)c3C(F)(F)F)CC2)nc1` [Example 115, N-[1-(5-cyanopyridin-2-yl)piperidin-4-yl]-3-[[(2S)-1-[6-oxo-5-(trifluoromethyl)-1,6-dihydropyridazin-4-yl]pyrrolidin-2-yl]methoxy]propanamide], the pIC50 was over 7.00.

Turning to `N#Cc1ccc(NC2CCN(C(=O)CCOC[C@@H]3CCCN3c3cn[nH]c(=O)c3C(F)(F)F)CC2)nc1` [Example 116, 6-[[1-(3-[[(2S)-1-[6-oxo-5-(trifluoromethyl)-1,6-dihydropyridazin-4-yl]pyrrolidin-2-yl]methoxy]propanoyl)piperidin-4-yl]amino]pyridine-3-carbonitrile], the pIC50 was over 7.00.

In turn, `N#Cc1ccc(N2CCC(NC(=O)CCOC[C@@H]3CCCN3c3cn[nH]c(=O)c3C(F)(F)F)C2)nc1` (stereo partly drawn) [Example 117, N-[1-(5-cyanopyridin-2-yl)pyrrolidin-3-yl]-3-[[(2S)-1-[6-oxo-5-(trifluoromethyl)-1,6-dihydropyridazin-4-yl]pyrrolidin-2-yl]methoxy]propanamide] gave a pIC50 of 6.00 to 7.00.

On to `CC(C)(COC[C@@H]1CCCN1c1cn[nH]c(=O)c1C(F)(F)F)CC(=O)N1CCN(c2ccc(C#N)cn2)CC1` [Example 118, 6-[4-(3,3-dimethyl-4-[[(2S)-1-[6-oxo-5-(trifluoromethyl)-1,6-dihydropyridazin-4-yl]pyrrolidin-2-yl]methoxy]butanoyl)piperazin-1-yl]pyridine-3-carbonitrile], for which the negative logarithm of the IC50 (pIC50) is over 7.00.

Take `N#Cc1ccc(N2CCN(C(=O)C#CCOC[C@@H]3CCCN3c3cn[nH]c(=O)c3C(F)(F)F)CC2)nc1` [Example 119, 6-[4-(4-[[(2S)-1-[6-oxo-5-(trifluoromethyl)-1,6-dihydropyridazin-4-yl]pyrrolidin-2-yl]methoxy]but-2-ynoyl)piperazin-1-yl]pyridine-3-carbonitrile]: the pIC50 is over 7.00.

Consider `N#Cc1ccc(N2CCN(C(=O)C3CC(OC[C@@H]4CCN(c5cn[nH]c(=O)c5C(F)(F)F)C4)C3)CC2)nc1` (stereo partly drawn) [Example 121A, 6-(4-((1R,3R)-3-((1-(6-oxo-5-(trifluoromethyl)-1,6-dihydropyridazin-4-yl)pyrrolidin-3-yl)methoxy)cyclobutanecarbonyl)piperazin-1-yl)nicotinonitrile], for which the pIC50 is over 7.00.

In the case of `N#Cc1ccc(N2CCN(C(=O)[C@H]3C[C@@H](OC[C@H]4CCN(c5cn[nH]c(=O)c5C(F)(F)F)C4)C3)CC2)nc1` [Example 121B, 6-(4-((1S,3S)-3-((1-(6-oxo-5-(trifluoromethyl)-1,6-dihydropyridazin-4-yl)pyrrolidin-3-yl)methoxy)cyclobutanecarbonyl)piperazin-1-yl)nicotinonitrile], the pIC50 is over 7.00.

For the compound `CO[C@H]1C[C@@H](COCCC(=O)N2CCN(c3ccc(C#N)cn3)CC2)N(c2cn[nH]c(=O)c2C(F)(F)F)C1` [Example 122, 6-[4-(3-[[(2S,4S)-4-methoxy-1-[6-oxo-5-(trifluoromethyl)-1,6-dihydropyridazin-4-yl]pyrrolidin-2-yl]methoxy]propanoyl)piperazin-1-yl]pyridine-3-carbonitrile], the pIC50 was over 7.00.

With `C[C@H](CC(=O)N1CCN(c2ccc(C#N)cn2)CC1)OC[C@@H]1CCCN1c1cn[nH]c(=O)c1C(F)(F)F` [Example 123A, 6-[4-[(3R)-3-[[(2S)-1-[6-oxo-5-(trifluoromethyl)-1,6-dihydropyridazin-4-yl]pyrrolidin-2-yl]methoxy]butanoyl]piperazin-1-yl]pyridine-3-carbonitrile], the negative logarithm of the IC50 (pIC50) was over 7.00.

With `C[C@@H](CC(=O)N1CCN(c2ccc(C#N)cn2)CC1)OC[C@@H]1CCCN1c1cn[nH]c(=O)c1C(F)(F)F` [Example 123B, 6-[4-[(3S)-3-[[(2S)-1-[6-oxo-5-(trifluoromethyl)-1,6-dihydropyridazin-4-yl]pyrrolidin-2-yl]methoxy]butanoyl]piperazin-1-yl]pyridine-3-carbonitrile], the pIC50 is over 7.00.

Consider `N#Cc1ccc(N2CCN(C(=O)COCCOCc3cccc4c3CN(c3cn[nH]c(=O)c3C(F)(F)F)C4)CC2)nc1` [Example 124, 6-(4-[2-[2-([2-[6-oxo-5-(trifluoromethyl)-1,6-dihydropyridazin-4-yl]-2,3-dihydro-1H-isoindol-4-yl]methoxy)ethoxy]acetyl]piperazin-1-yl)pyridine-3-carbonitrile], for which the pIC50 was over 7.00.

In the case of `N#Cc1ccc(N2CCN(C(=O)N3CC(OC[C@@H]4CCCN4c4cn[nH]c(=O)c4C(F)(F)F)C3)CC2)nc1` [Example 125, 6-[4-(3-[[(2S)-1-[6-oxo-5-(trifluoromethyl)-1,6-dihydropyridazin-4-yl]pyrrolidin-2-yl]methoxy]azetidine-1-carbonyl)piperazin-1-yl]pyridine-3-carbonitrile], the pIC50 is over 7.00.

In turn, `N#Cc1ccc(N2CCN(C(=O)NCCOC[C@@H]3CCCN3c3cn[nH]c(=O)c3C(F)(F)F)CC2)nc1` [Example 126, 4-(5-cyanopyridin-2-yl)-N-(2-[[(2S)-1-[6-oxo-5-(trifluoromethyl)-1,6-dihydropyridazin-4-yl]pyrrolidin-2-yl]methoxy]ethyl)piperazine-1-carboxamide] gave a pIC50 of over 7.00.

Consider `N#Cc1ccc(N2CCN(C(=O)CCOC[C@@H]3CCCN3c3cn[nH]c(=O)c3C#N)CC2)nc1` [Example 127, 5-[(2S)-2-([3-[4-(5-cyanopyridin-2-yl)piperazin-1-yl]-3-oxopropoxy]methyl)pyrrolidin-1-yl]-3-oxo-2,3-dihydropyridazine-4-carbonitrile], for which the pIC50 is over 7.00.
